Laboratory results as given in patent US20240199623A1 (ILDONG PHARMACEUTICAL CO., LTD., priority 2020, published 2024).
pEC50: −log10 of the molar value.

Each compound was assayed against human wild type-CFTR (Homo sapiens, UniProt P13569) (assay: Cell-based YFP assay). Settings: CHO-K1 cells expressing human wild type-CFTR and YFP-H148Q/I152L; forskolin 20 μM = 100% activity; read-out: Cell-based YFP Assay (EC50) Concentration Range.
Parameters: expressed in transfected cells; host or cells: CHO-K1 (Chinese hamster ovary)
Method: Forskolin (Tocris cat. #1099), Dimethyl sulfoxide (Sigma cat. #D4540), FLUO star Omega microplate reader (BMG Labtech, Ortenberg, Germany), MARS Data Analysis Software (BMG Labtech), GraphPad Prism 5 (GraphPad Software, Inc.) Chinese hamster ovary (CHO-K1) cells expressing human wild type-CFTR and halide sensor YFP-H148Q/I152L were constructed and grown in Dulbecco's modified Eagle's medium (DMEM) supplemented with 10% FBS, 2 mM glutamine, 100 units/ml penicillin and 100 μg/ml streptomycin. Chinese hamster ovary (CHO-K1) cells expressing human wild type-CFTR and halide sensor YFP-H148Q/I152L were seeded in 96-well microplate with 2×10^4 cells/well and incubated in 37° C., 48 hours. Then, each well was washed 3 times with PBS and 100 μL PBS was added in each well. […] YFP fluorescence signal affected by I^− ion influx through CFTR channel was measured in 37° C., FLUO star Omega microplate reader according to the following steps: • i) basal 2 seconds; • ii) 140 mM I^− solution 100 μL addition to each well; • iii) YFP fluorescence signal measurement start after 6 seconds; and • iv) following 14 seconds signal detection in every 0.4 seconds periods. […] Experiments were performed in triplicates and the data was averaged. EC50 values were calculated with MARS Data Analysis Software (BMG Labtech) and GraphPad Prism 5.

Sequence of human wild type-CFTR (P13569 whole entry): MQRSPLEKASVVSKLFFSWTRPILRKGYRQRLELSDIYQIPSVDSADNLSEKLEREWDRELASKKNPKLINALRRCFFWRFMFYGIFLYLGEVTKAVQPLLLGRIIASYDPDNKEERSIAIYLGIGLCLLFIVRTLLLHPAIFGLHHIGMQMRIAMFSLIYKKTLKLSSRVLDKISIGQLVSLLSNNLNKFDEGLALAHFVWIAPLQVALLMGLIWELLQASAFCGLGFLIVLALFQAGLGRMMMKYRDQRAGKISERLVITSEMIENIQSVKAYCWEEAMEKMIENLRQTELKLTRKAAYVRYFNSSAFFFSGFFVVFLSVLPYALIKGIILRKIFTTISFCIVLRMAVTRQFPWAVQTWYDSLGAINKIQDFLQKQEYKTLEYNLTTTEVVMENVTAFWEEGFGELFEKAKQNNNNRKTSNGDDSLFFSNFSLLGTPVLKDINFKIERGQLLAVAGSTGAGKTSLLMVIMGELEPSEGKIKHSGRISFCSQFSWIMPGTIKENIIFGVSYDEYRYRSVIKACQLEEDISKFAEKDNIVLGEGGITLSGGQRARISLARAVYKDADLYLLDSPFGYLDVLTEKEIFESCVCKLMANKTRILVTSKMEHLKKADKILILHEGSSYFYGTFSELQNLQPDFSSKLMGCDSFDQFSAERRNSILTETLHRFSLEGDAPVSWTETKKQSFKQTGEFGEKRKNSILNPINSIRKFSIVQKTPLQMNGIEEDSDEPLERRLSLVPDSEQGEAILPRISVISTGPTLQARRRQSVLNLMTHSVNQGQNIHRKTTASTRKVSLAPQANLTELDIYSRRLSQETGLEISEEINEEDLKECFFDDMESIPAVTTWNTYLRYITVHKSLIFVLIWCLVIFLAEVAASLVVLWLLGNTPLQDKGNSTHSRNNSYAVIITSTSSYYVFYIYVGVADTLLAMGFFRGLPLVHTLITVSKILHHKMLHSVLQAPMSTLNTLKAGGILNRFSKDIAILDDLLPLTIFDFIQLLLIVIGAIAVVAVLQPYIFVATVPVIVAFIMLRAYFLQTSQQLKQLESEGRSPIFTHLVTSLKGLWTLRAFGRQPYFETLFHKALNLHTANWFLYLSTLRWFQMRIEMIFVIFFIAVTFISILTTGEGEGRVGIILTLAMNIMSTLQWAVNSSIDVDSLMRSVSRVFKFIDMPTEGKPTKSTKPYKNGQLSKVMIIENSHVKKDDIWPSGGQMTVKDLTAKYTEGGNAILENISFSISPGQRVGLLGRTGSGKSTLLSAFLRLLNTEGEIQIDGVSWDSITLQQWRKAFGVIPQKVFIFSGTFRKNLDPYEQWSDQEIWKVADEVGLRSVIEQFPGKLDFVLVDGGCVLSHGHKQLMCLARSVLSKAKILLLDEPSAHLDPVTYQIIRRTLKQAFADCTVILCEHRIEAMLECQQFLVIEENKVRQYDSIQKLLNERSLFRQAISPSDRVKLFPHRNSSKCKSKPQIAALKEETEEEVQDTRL

| Compound | pEC50 |
| --- | --- |
| COc1ccc(-c2ccnc3cc(C(=O)Nc4ccc(C(=O)N(C)CCN(C)C)cc4)nn23)cc1OC [Compound 219, 7-(3,4-dimethoxyphenyl)-N-(4-((2-(dimethylamino)ethyl) (methyl)carbamoyl)phenyl)pyrazolo[1,5-a] pyrimidine-2-carboxamide] | ≤ 5.70 |
| CCN(CC)CCNC(=O)c1ccc(NC(=O)c2cc3nccc(-c4ccc(OC)c(OC)c4)n3n2)cc1 [Compound 221, N-(4-((2-(diethylamino)ethyl)carbamoyl)phenyl)-7-(3,4-dimethoxyphenyl)pyrazolo [1,5-a]pyrimidine-2-carboxamide] | ≤ 5.70 |
| COC(=O)c1ccc(NC(=O)c2cc3nccc(-c4ccc(OC)c(OC)c4)n3n2)c(Cl)c1 [Compound 104, methyl 3-chloro-4-(7-(3,4-dimethoxyphenyl)pyrazolo [1,5-a]pyrimidine-2-carboxamido)benzoate] | ≤ 5.70 |
| COc1ccc(-c2ccnc3cc(C(=O)N(C)c4ccc(C(=O)N5CCOCC5)cc4)nn23)cc1OC [Compound 249, 7-(3,4-dimethoxyphenyl)-N-methyl-N-(4-(morpholine-4-carbonyl)phenyl)pyrazolo[1,5-a]pyrimidine-2-carboxamide] | ≤ 5.70 |
| COc1ccc(-c2ccnc3cc(C(=O)NN4CCOCC4)nn23)cc1OC [Compound 99, 7-(3,4-dimethoxyphenyl)-N-morpholinopyrazolo[1,5-a] pyrimidine-2-carboxamide] | ≤ 5.70 |
| COc1ccc(-c2ccnc3cc(C(=O)N[C@H]4CC[C@@H](C(N)=O)CC4)nn23)cc1OC [Compound 71, N-((1S,4S)-4-carbamoylcyclohexyl)-7-(3,4-dimethoxyphenyl)pyrazolo [1,5-a]pyrimidine-2-carboxamide] | ≤ 5.70 |
| COCCOCOc1ccc(NC(=O)c2cc3nccc(-c4ccc(OC)c(OC)c4)n3n2)cc1 [Compound 346, 7-(3,4-dimethoxyphenyl)-N-(4-((2-methoxyethoxy)methoxy)phenyl)pyrazolo[1,5-a]pyrimidine-2-carboxamide] | > 6.70 |
| COc1ccc(-c2ccnc3cc(C(=O)NC45CC(NC(=O)N6CCOCC6)(C4)C5)nn23)cc1OC [Compound 138, N-(3-(7-(3,4-dimethoxyphenyl)pyrazolo[1,5-a]pyrimidine-2-carboxamido)bicyclo [1.1.1]pentan-1-yl)morpholine-4-carboxamide] | ≤ 5.70 |
| COc1ccc(-c2ccnc3cc(C(=O)Nc4ccc(C(=O)N[C@@H](CO)C(=O)O)cc4)nn23)cc1OC [Compound 45, (4-(7-(3,4-dimethoxyphenyl)pyrazolo[1,5-a]pyrimidine-2-carboxamido)benzoyl)-L-serine] | ≤ 5.70 |
| COc1ccc(-c2ccnc3cc(C(=O)N4CCN(C(=O)c5cccc(C)c5)[C@@H](C)C4)nn23)cc1OC [Compound 369, (S)-(7-(3,4-dimethoxyphenyl)pyrazolo[1,5-a]pyrimidin-2-yl)(3-methyl-4-(3-methylbenzoyl)piperazin-1-yl)methanone] | > 6.70 |
| COc1ccc(-c2ccnc3cc(C(=O)N4CCN(C(=O)c5ccccc5)C5(CC5)C4)nn23)cc1OC [Compound 367, (4-benzoyl-4,7-diazaspiro [2.5]octan-7-yl)(7-(3,4-dimethoxyphenyl)pyrazolo[1,5-a]pyrimidin-2-yl)methanone] | > 6.70 |
| COc1ccc(-c2ccnc3cc(C(=O)N4CCN[C@@H](C5CC5)C4)nn23)cc1OC [Compound 374, (S)-(3-cyclopropylpiperazin-1-yl)(7-(3,4-dimethoxyphenyl)pyrazolo [1,5-a]pyrimidin-2-yl)methanone] | 5.70 to 6.70 |
| COc1ccc(-c2ccnc3cc(C(=O)N[C@H]4CC[C@H](C(=O)N5CCC(N6CCCCC6)CC5)CC4)nn23)cc1OC [Compound 343, N-((1R,4R)-4-([1,4′-bipiperidine]-1′-carbonyl)cyclohexyl)-7-(3,4-dimethoxyphenyl)pyrazolo [1,5-a]pyrimidine-2-carboxamide] | ≤ 5.70 |
| COc1ccc(-c2ccnc3cc(C(=O)Nc4ccc(C(=O)N5CCC(N6CCOCC6)CC5)cc4F)nn23)cc1OC [Compound 349, 7-(3,4-dimethoxyphenyl)-N-(2-fluoro-4-(4-morpholinopiperidine-1-carbonyl)phenyl)pyrazolo [1,5-a]pyrimidine-2-carboxamide] | > 6.70 |
| COc1ccc(-c2ccnc3cc(C(=O)NCc4ccc(N5CCOCC5)cc4)nn23)cc1OC [Compound 246, 7-(3,4-dimethoxyphenyl)-N-(4-morpholinobenzyl)pyrazolo [1,5-a]pyrimidine-2-carboxamide] | 5.70 to 6.70 |
| COc1cccc(C(=O)N2CCN(C(=O)c3cc4nccc(-c5ccc(OC)c(OC)c5)n4n3)C[C@@H]2C)c1 [Compound 318, (S)-(7-(3,4-dimethoxyphenyl)pyrazolo[1,5-a]pyrimidin-2-yl)(4-(3-methoxybenzoyl)-3-methylpiperazin-1-yl) methanone] | 5.70 to 6.70 |

| Compound | pEC50 |
| --- | --- |
| COc1ccc(-c2ccnc3cc(C(=O)Nc4ccc(C(=O)NCCCN5CCOCC5)cc4)nn23)cc1OC [Compound 173, 7-(3,4-dimethoxyphenyl)-N-(4-((3-morpholinopropyl)carbamoyl)phenyl)pyrazolo [1,5-a]pyrimidine-2-carboxamide] | > 6.70 |
| COc1ccc(NC(=O)c2cc3nccc(-c4ccc(OC)c(OC)c4)n3n2)c(F)c1 [Compound 325, 7-(3,4-dimethoxyphenyl)-N-(2-fluoro-4-methoxyphenyl)pyrazolo [1,5-a]pyrimidine-2-carboxamide] | > 6.70 |
| COc1ccc(-c2ccnc3cc(C(=O)Nc4ccc(C(=O)O)c(F)c4)nn23)cc1OC [Compound 278, 4-(7-(3,4-dimethoxyphenyl)pyrazolo[1,5-a]pyrimidine-2-carboxamido)-2-fluorobenzoic acid] | ≤ 5.70 |
| COc1ccc(-c2ccnc3cc(C(=O)N4CCN(C(=O)c5ccccc5Cl)[C@@H](C)C4)nn23)cc1OC [Compound 260, (S)-(4-(2-chlorobenzoyl)-3-methylpiperazin-1-yl) (7-(3,4-dimethoxyphenyl)pyrazolo[1,5-a]pyrimidin-2-yl)methanone] | 5.70 to 6.70 |
| COc1ccc(-c2ccnc3cc(C(=O)Nc4ccc(C(=O)O)c(Cl)c4)nn23)cc1OC [Compound 279, 2-chloro-4-(7-(3,4-dimethoxyphenyl)pyrazolo [1,5-a]pyrimidine-2-carboxamido)benzoic acid] | ≤ 5.70 |
| COc1ccc(-c2ccnc3cc(C(=O)N[C@H]4CC[C@H](C(=O)N5CCNCC5)CC4)nn23)cc1OC [Compound 82, 7-(3,4-dimethoxyphenyl)-N-((1R,4R)-4-(piperazine-1-carbonyl)cyclohexyl) pyrazolo[1,5-a]pyrimidine-2-carboxamide] | ≤ 5.70 |
| COc1ccc(C(=O)N2CCN(C(=O)c3cc4nccc(-c5ccc(OC)c(OC)c5)n4n3)C[C@@H]2C)cc1 [Compound 319, (S)-(7-(3,4-dimethoxyphenyl)pyrazolo[1,5-a]pyrimidin-2-yl)(4-(4-methoxybenzoyl)-3-methylpiperazin-1-yl) methanone] | 5.70 to 6.70 |
| CCOc1ccc(NC(=O)c2cc3nccc(-c4ccc(OC)c(OC)c4)n3n2)nc1 [Compound 314, 7-(3,4-dimethoxyphenyl)-N-(5-ethoxypyridin-2-yl)pyrazolo[1,5-a] pyrimidine-2-carboxamide] | > 6.70 |
| COC(=O)c1ccc(NC(=O)c2cc3nccc(-c4ccc5c(c4)OCCO5)n3n2)cc1 [Compound 70, methyl 4-(7-(2,3-dihydrobenzo[b][1,4]dioxin-6-yl)pyrazolo[1,5-a]pyrimidine-2-carboxamido)benzoate] | ≤ 5.70 |
| CCOC(=O)CNC(=O)c1cc2nccc(-c3ccc(OC)c(OC)c3)n2n1 [Compound 20, ethyl (7-(3,4-dimethoxyphenyl)pyrazolo [1,5-a]pyrimidine-2-carbonyl) glycinate] | 5.70 to 6.70 |
| CCCCCCCCCCOC(=O)[C@H]1CC[C@H](NC(=O)c2cc3nccc(-c4ccc(OC)c(OC)c4)n3n2)CC1 [Compound 333, decyl (1r,4r)-4-(7-(3,4-dimethoxyphenyl)pyrazolo [1,5-a]pyrimidine-2-carboxamido)cyclohexane-1-carboxylate] | ≤ 5.70 |
| COc1ccc(-c2ccnc3cc(C(=O)Nc4ccc(OC)c(F)c4F)nn23)cc1OC [Compound 326, N-(2,3-difluoro-4-methoxyphenyl)-7-(3,4-dimethoxyphenyl)pyrazolo [1,5-a]pyrimidine-2-carboxamide] | 5.70 to 6.70 |
| COc1ccc(-c2ccnc3cc(C(=O)NCc4ccc(N5CCN(C)CC5)cc4)nn23)cc1OC [Compound 245, 7-(3,4-dimethoxyphenyl)-N-(4-(4-methylpiperazin-1-yl)benzyl)pyrazolo[1,5-a]pyrimidine-2-carboxamide] | ≤ 5.70 |
| COC(=O)c1ccc(N(C)C(=O)c2cc3nccc(-c4ccc(OC)c(OC)c4)n3n2)cc1 [Compound 183, methyl 4-(7-(3,4-dimethoxyphenyl)-N-methylpyrazolo[1,5-a]pyrimidine-2-carboxamido)benzoate] | 5.70 to 6.70 |
| COc1ccc(-c2ccnc3cc(C(=O)N4CCc5ccc(C(=O)O)cc5C4)nn23)cc1OC [Compound 155, 2-(7-(3,4-dimethoxyphenyl)pyrazolo[1,5-a]pyrimidine-2-carbonyl)-1,2,3,4-tetrahydroisoquinoline-7-carboxylic acid] | ≤ 5.70 |
